Source: patent EP0263209A2, “Anthelmintic quinolinyl acylhydrazones” (THE UPJOHN COMPANY, priority 1986, dated 1988)
Read-outs that look alike come from different tables or passages of the source.

Columns and labels:
Type in all cases: in vivo
H. contortus = assay: Sheep experimentally infected with Haemonchus contortus, percentage clearance (Procedure No. 1); details: single sheep per route
Description: In individual experiments all sheep are treated identically, however non-critical variations occur between experiments. All of the sheep used in this procedure are treated twice with levamisole hydrochloride orally at 8 mg/kg or once each with ivermectin parenterally at 200 µg/kg and levamisole hydrochloride orally at 8 mg/kg. The second treatment in each case is administered 4-7 days after the first treatment. Two weeks after the second treatment all sheep are inoculated per os with ∼3,500 to ∼7,500 infective larvae of H. contortus. Rectal fecal samples are taken from each sheep 26-41 days post-inoculation (P.I.), and these samples are examined for eggs of H. contortus using the McMaster counting chamber technique. […] One-three days later on days 27-42 PI each sheep remaining in the study (excluding the nontreated controls) is treated with a test compound (orally or parenterally at 100 mg/kg unless indicated otherwise) or a standard (levamisole hydrochloride orally at 8 mg/kg) or is used as an untreated control. All sheep received food and water ad lib. throughout the experiment. Prior to administration, all solid compounds are finely ground using a mortar and pestle. Oral compounds are suspended in 20-30 ml of sterile vehicle #98 (each ml contains: carboxymethylcellulose = 10 mg, polysorbate80 -4 mg, propylparaben - 0.42 mg) using a sonicator and administered along with a tap water wash via a stomach tube. The parenteral compounds are similarly suspended in 20-30 ml of the sterile vehicle and given by intraperitoneal injecting using a 13 gauge, 2 inch needle and a 50 ml syringe. All test compounds are given to a single sheep/route of administration. Two or more sheep are treated with levamisole hydrochloride and five are used as nontreated controls. All animals are monitored for signs of toxicity following treatment. The sheep are sacrificed 7-12 days after treatment (days 35-49 PI), and the abomasum is ligated and removed from each sheep. Each abomasum is longitudinally sectioned and rinsed into an 80 mesh sieve. Sieve contents are collected in individual containers and fixed in formol-alcohol. Later each sample is transferred to a 1000 or 2000 ml beaker and the volume brought to 400-1000 ml with tap water. The total number of worms in a 40-100 ml aliquot (10%) is determined. When no worms are found in the 10% aliquot, the entire sample is examined. Total worm number/sheep and percentage clearance for each treatment are calculated. Percentage clearance for a particular test compound in a given trial is determined according to the following formula: Percentage Clearance (Test Compound) = [(Mean number of worms recovered from nontreated control sheep - Number of worms recovered from treated sheep)/Mean number of worms recovered from nontreated control sheep] x 100. Sheep which die within 24 hr following treatment are not examined for worms, while any that die between 24 hr post-treatment and necropsy are examined in an identical manner as that described above. The results of various trials are combined and reported in Table I as percentage clearance.

Haemonchus = assay: Sheep naturally infected with helminths, mean percentage clearance of adult worms (Procedure No. 2); details: Oral, 100 mg/kg, groups of five
Description: (§1) Parasitized sheep are randomly assigned to groups of five animals based on parasitic burden, sex, and farm origin. Sheep are double ear-tagged, weighed, housed in a barn in community pens, fed hay supplemented with 1/2 lb corn/head/day. Water is given ad lib. Animals are allowed to acclimate for one-two weeks prior to treatment.
(§2) Each group of sheep receives a test compound either orally or parenterally at a dosage rate of 100 mg/kg. A group of sheep is treated with 8 mg/kg of levamisole hydrochloride and another group serves as an untreated control group. Orally administered compounds are suspended in 20-30 ml of sterile vehicle #98 (each ml contains: carboxymethylcellulose - 10 mg, polysorbate80 -4 mg, propylparaben - 0.42 mg) using a sonicator and administered along with a tap water wash via a stomach tube. For parenteral administration, compounds are similarly suspended in 20-30 ml of the sterile vehicle and given by intraperitoneal injection using a 20 gauge, 1 inch needle and a 50 ml syringe. Following treatment, all animals are observed for signs of toxicity.
(§3) The number and classification of helminth eggs per gram of feces (e.p.g.) are determined for each sheep during the acclimation period and in some cases at necropsy. Egg counts are made using the McMaster counting chamber technique and rectal fecal samples. Animals dying during the 24 hours immediately following dosing are not subjected to necropsy. Sheep that die 1-6 days posttreatment are posted and complete worm counts performed. All remaining animals are sacrificed on days 7-8 posttreatment. Each sheep is euthanised and bled out prior to opening the abdominal cavity. Ligatures are placed at the reticuloomasal junction, the pyloric valve, and the ileo-cecal junction. The abomasum and small intestine are freed of fat and mesenteric attachments, longitudinally opened, and their contents placed in individual containers. The mucosal surface of each is washed with tap water, rubbed clean, and rinsed several times. Washings and ingesta for each organ are made up to 1 liter and a 10% aliquot in formalin is stored for later examination. The cecum, large intestine, and colon are freed of mesenteric attachments, each is longitudinally opened, and their contents washed, collected, and made up to 1 liter in 10% formalin. The entire sample is stored. All carcasses are incinerated.
(§4) Ten percent of the total contents collected from the abomasum and small intestine and the entire contents of the large intestine, cecum, and colon are examined under stereoscopic magnification (40X). All worms are identified to genus and in some instances species. Separate adult and larval counts are determined.
(§5) The mean percentage clearance against specific helminths in the test sheep is calculated by subtracting the mean number of helminths observed in the treated sheep at necropsy from the mean number observed in the nontreated controls at necropsy, dividing the remainder by the latter mean number and multiplying by 100. The mean percentage clearances against the various helminths identified in the test sheep are calculated.

Nematodirus = assay: as above; details: Oral, 100 mg/kg, groups of five
Description: as §1, §2, §3, §4, §5

Oesophagostomum = assay: as above; details: Oral, 100 mg/kg, groups of five
Description: as §1, §2, §3, §4, §5

Ostertagia = assay: as above; details: Oral, 100 mg/kg, groups of five
Description: as §1, §2, §3, §4, §5

Trichostrongylus axei = assay: as above; details: Oral, 100 mg/kg, groups of five
Description: as §1, §2, §3, §4, §5

[1] = system: Trichostrongylus colubriformis; assay: as above; details: Oral, 100 mg/kg, groups of five
Description: as §1, §2, §3, §4, §5

Trichuris = assay: as above; details: Oral, 100 mg/kg, groups of five
Description: as §1, §2, §3, §4, §5

[2] = ip, intraperitoneal administration, read-out: H. contortus %Clearance I.P.
[3] = oral administration, read-out: H. contortus %Clearance P.O.

Row | SMILES | inhibition in vivo at 100 mg/kg (H. contortus; [2]) [%] | inhibition in vivo at 100 mg/kg (H. contortus; [3]) [%] | other results
1 | CCOc1ccc(C(=O)NN=Cc2ccc3ccccc3n2)cc1 [Compound 14] | 0 | 36.8 | –
2 | CC(=O)NN=Cc1cnc2ccccc2c1 [Compound 43] | – | 85.4 | –
3 | O=C(NN=Cc1ccnc2ccccc12)c1ccc(C(F)(F)F)cc1 [Compound 26, 4-trifluoromethylbenzoic acid (4-quinolinylmethylene)hydrazide] | 29 | 40.2 | –
4 | COc1ccc(C(=O)NN=Cc2ccc3ccccc3n2)cc1 [Compound 22, 4-methoxybenzoic acid (2-quinolinylmethylene)hydrazide] | 14.3 | 0 | –
5 | O=C(NN=Cc1cnc2ccccc2c1)C1CCCCC1 [Compound 41] | – | 98.2 | –
6 | O=C(NN=Cc1ccc2ccccc2n1)c1cccnc1 [Compound 9] | – | 76.8 | –
7 | CCOC(=O)NN=Cc1ccnc2ccccc12 [Compound 6, ethyl (4-quinolinylmethylene)carbazate] | 61.2 | 82.9 | Percentage Clearance of Adult Worms H. (Haemonchus): 94.1%; Percentage Clearance of Adult Worms N. (Nematodirus): 45.2%; Percentage Clearance of Adult Worms Oes. (Oesophagostomum): 33.3%; Percentage Clearance of Adult Worms Ost. (Ostertagia): 79.4%; Percentage Clearance of Adult Worms T.a. (Trichostrongylus axei): 0%; Percentage Clearance of Adult Worms T.c. [1]: 61.4%; Percentage Clearance of Adult Worms Trich. (Trichuris): 11.1%
8 | O=C(NN=Cc1ccc2ccccc2n1)c1ccccc1 [Compound 8, benozic acid (2-quinolinylmethylene) hydrazide] | – | 33 | –
9 | O=C(NN=Cc1ccnc2ccccc12)c1cccs1 [Compound 16] | 80.1 | 25.2 | –
10 | Cc1cccc(C(=O)NN=Cc2ccc3ccccc3n2)c1 [Compound 4, 3-methylbenzoic acid (2-quinolinylmethyl-ene)hydrazide] | 29.8 | 53.3 | –
11 | COC(=O)NN=Cc1ccnc2ccccc12 [Compound 25, methyl (4-quinolinylmethylene)carbazate] | – | 3.4 | –
12 | Cc1ccccc1C(=O)NN=Cc1ccc2ccccc2n1 [Compound 15] | 0 | 32 | –
13 | O=C(NN=Cc1ccnc2ccccc12)C1CCC1 [Compound 29, cyclobutanecarboxylic acid (4-quinolinylmethylene)hydrazide] | 88.4 | 99.8 | –
14 | NC(=O)NCC(=O)NN=Cc1ccc2ccccc2n1 [Compound 12] | – | 32.9 | –
15 | O=C(NN=Cc1ccc2ccccc2n1)c1cccc([N+](=O)[O-])c1 [Compound 23, 3-nitrobenzoic acid (2-quinolinylmethylene)hydrazide] | 0 | 39.5 | –
16 | O=C(NN=Cc1ccnc2ccccc12)c1ccccc1 [Compound 11] | – | 96.8 | –
17 | CCC(=O)NN=Cc1cnc2ccccc2c1 [Compound 39] | – | 96.4 | –
18 | O=C(NN=Cc1ccc2ccccc2n1)c1cccc(O)c1 [Compound 20] | 20.3 | 0 | –
